EP4257135A1, “BENZIMIDAZOLE DERIVATIVES FOR PULMONARY ARTERIAL HYPERTENSION” (Justus-Liebig-Universität Gießen, priority 2022, dated 2023)

Test system: PAH-FBs
Test: Cell proliferation by BrdU incorporation in PAH fibroblasts
Type: cell-based, human
Settings: PAH-FBs isolated ex vivo; various concentrations; vs DMSO; 24 h
Excerpt: Diese Untersuchungen führten zu der Erkenntnis, dass die epigenetische Regulation der entwicklungsbedingten TF-Expression in der Lunge durch Modulation der EP300/CREBBP-Funktion rückgängig gemacht werden kann. Die Wirkung des niedermolekularen Inhibitors (Substanz, Wirkstoff) SGC-CBP30 auf die Proliferation von Gefäßzellen, die Apoptose sowie die Gen- und Proteinexpression wurde mit Hilfe geeigneter Assays nach der Transfektion untersucht. Nachdem Zellen zur Subkonfluenz gewachsen sind, wurde ihnen mit steigenden Konzentrationen der selektive EP300-Inhibitor SGC-CBP30 (Sigma, Katalognummer: SML1133) hinzugefügt. Die aus PAH-Patienten isolierten FBs wurden also mit dem isoformselektiven HAT-Inhibitor SGC-CBP30 behandelt. Gleichzeitig wurde den Zellen das Lösungsmittel DMSO (Sigma) mit entsprechenden Konzentrationen hinzugefügt. […]
• A: PAH-FBs wurden mit siRNAs (siP300) behandelt, die auf EP300 abzielen (n=3), um die genspezifische funktionelle Rolle von EP300 bei der Hyperproliferation ex vivo 48 Stunden nach der Transfektion zu untersuchen. […] Skalenbalken: 50 µm. • E: Die Wirkung der P300-Inhibition (200 µM) auf den Gefäßumbau wurde durch Quantifizierung der prozentualen medialen Wanddicke in den mit dem EP300/CREBBP-Inhibitor SGC-CBP30 inkubierten PCLS im Vergleich zu den mit DMSO inkubierten Kontrollen bewertet. […]

With COc1ccc(CCc2nc3cc(-c4c(C)noc4C)ccc3n2C[C@H](C)N2CCOCC2)cc1Cl [SGC-CBP30, 2-[2-(3-Chloro-4-methoxyphenyl)ethyl]-5-(3,5-dimethyl-1,2-oxazol-4-yl)-1-[(S)-2-(morpholin-4-yl)propyl]-1H-benzimidazole] the “hyperproliferativer Phänotyp (Zellproliferation, BrdU)” value was “schwächte den hyperproliferativen Phänotyp und die Apoptoserate von PAH-FBs und PAH-SMCs deutlich ab”.
